From patent publication US20250136576A1, “Heterocyclic Compounds and Uses Thereof” (ACEA Therapeutics, Inc., priority 2021, published 2025)

System: KM12-luc cells
Test: Cell proliferation and growth inhibition assay (CCK-8) in KM12-luc
Format: cell-based
Conditions: KM12-Luc, 72 h, KM12-luc cells, treated with test compounds for 72 hrs, CCK-8 viability; read-out: NTRK IC50 in KM12-luc
How it was run: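 IC50 values were fitted by sigmoidal dose-response non-linear regression of CCK-8 OD450 absorbance after 1-4 hrs with reagent. Culture media were IMDM for MV-4-11, RPMI 1640 for H1975 and DMEM for KM12-luc, each with 10% FBS at 37 °C, 5% CO2.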

COc1cc(N2CCN(C(C)=O)CC2)ccc1Nc1nc(Nc2cccc(NC(C)=O)c2)ncc1C(F)(F)F [Compound 173, N-(3-((4-((4-(4-acetylpiperazin-1-yl)-2-methoxyphenyl)amino)-5-(trifluoromethyl)pyrimidin-2-yl)amino)phenyl)acetamide] and CC(=O)Nc1cc(Nc2ncc(C(F)(F)F)c(-c3cn(C)c4c(F)cccc34)n2)ccc1N1CC[C@@H](N(C)C)C1 [Compound R-353, (R)—N-(2-(3-(dimethylamino)pyrrolidin-1-yl)-5-((4-(7-fluoro-1-methyl-1H-indol-3-yl)-5-(trifluoromethyl)pyrimidin-2-yl)amino)phenyl)acetamide] are within 1.5-fold of each other in IC50: 85.7 nM for the first, 64.3 nM for the second.

Compared with CC(=O)Nc1cc(Nc2ncc(F)c(-c3c[nH]c4ccccc34)n2)ccc1N(C)CCN(C)C [Compound 259a, N-(2-((2-(dimethylamino)ethyl)(methyl)amino)-5-((5-fluoro-4-(1H-indol-3-yl)pyrimidin-2-yl)amino)phenyl)acetamide], COc1cnc(Nc2ccc(N(C)CCN(C)C)c(NC(C)=O)c2)nc1-c1c[nH]c2ccccc12 [Compound 272a, N-(5-(4-(1H-indol-3-yl)-5-methoxypyrimidin-2-ylamino)-2-((2-(dimethylamino)ethyl)(methyl)amino)phenyl)acetamide] is 1.6-fold lower in IC50: 65.7 nM for the first, 41 nM for the second.

Going from CC(=O)Nc1cc(Nc2nc(-c3cn(C)c4cc(F)c(F)cc34)c3cc[nH]c3n2)ccc1N(C)CCN(C)C [Compound 237, N-(5-((4-(5,6-difluoro-1-methyl-1H-indol-3-yl)-7H-pyrrolo[2,3-d]pyrimidin-2-yl)amino)-2-((2-(dimethylamino)ethyl)(methyl)amino)phenyl)acetamide] to CC(=O)Nc1cc(Nc2ncc(F)c(-c3cn(C)c4cccc(F)c34)n2)ccc1N(C)CCN(C)C [Compound 264, N-(2-((2-(dimethylamino)ethyl)(methyl)amino)-5-((5-fluoro-4-(4-fluoro-1-methyl-1H-indol-3-yl)pyrimidin-2-yl)amino)phenyl)acetamide], the IC50 rises from 537 nM to 1040 nM (1.9-fold). The first is the more potent here.

Compared with CN(C)CCN(C)c1ccc(Nc2ncc(C(F)(F)F)c(-c3cn(C)c4ccccc34)n2)cc1N [Compound 306, N^1-(2-(dimethylamino)ethyl)-N^1-methyl-N^4-(4-(1-methyl-1H-indol-3-yl)-5-(trifluoromethyl)pyrimidin-2-yl)benzene-1,2,4-triamine], CCN(CCN(C)C)c1ccc(Nc2ncc(C(F)(F)F)c(-c3cn(C)c4ccccc34)n2)cc1N [Compound 310, N^1-(2-(dimethylamino)ethyl)-N^1-ethyl-N^4-(4-(1-methyl-1H-indol-3-yl)-5-(trifluoromethyl)pyrimidin-2-yl)benzene-1,2,4-triamine] is 5.4-fold higher in IC50: 56.1 nM for the first, 305 nM for the second.

First: CC(=O)Nc1cc(Nc2ncc(C(F)(F)F)c(-c3c[nH]c4cc(F)ccc34)n2)ccc1N(C)CCN(C)C [Compound 328a, N-(2-((2-(dimethylamino)ethyl)(methyl)amino)-5-((4-(6-fluoro-1H-indol-3-yl)-5-(trifluoromethyl)pyrimidin-2-yl)amino)phenyl)acetamide]
Second: CC(=O)Nc1cc(Nc2ncc(C(F)(F)F)c(-c3c[nH]c4ccc(F)cc34)n2)ccc1N(C)CCN(C)C [Compound 321, N-(2-((2-(dimethylamino)ethyl)(methyl)amino)-5-((4-(5-fluoro-1H-indol-3-yl)-5-(trifluoromethyl)pyrimidin-2-yl)amino)phenyl)acetamide]
The IC50 of the first is 2.3-fold higher: 34.1 nM for the first, 14.8 nM for the second.

First: CN(C)[C@H]1CCN(c2ccc(Nc3ncc(Cl)c(-c4c[nH]c5c(F)cccc45)n3)cc2N)C1 [Compound S-414, (S)—N^1-(5-chloro-4-(7-fluoro-1H-indol-3-yl)pyrimidin-2-yl)-4-(3-(dimethylamino)pyrrolidin-1-yl)benzene-1,3-diamine]
Second: Cc1cccc2c(-c3nc(Nc4ccc(N5CC[C@@H](N(C)C)C5)c(N)c4)ncc3Cl)cn(C)c12 [Compound R-431, (R)—N^1-(5-chloro-4-(1,7-dimethyl-1H-indol-3-yl)pyrimidin-2-yl)-4-(3-(dimethylamino)pyrrolidin-1-yl)benzene-1,3-diamine]
The IC50 of the first is 1.6-fold higher: 50.1 nM for the first, 31.8 nM for the second.

Compared with CCN(CCN(C)C)c1ccc(Nc2nc3c(c(-c4cn(C)c5ccccc45)n2)CCO3)cc1NC(C)=O [Compound 258c, N-(2-((2-(dimethylamino)ethyl)(ethyl)amino)-5-((4-(1-methyl-1H-indol-3-yl)-5,6-dihydrofuro[2,3-d]pyrimidin-2-yl)amino)phenyl)acetamide], CCN(CCN(C)C)c1ccc(Nc2ncc(Cl)c(-c3cn(C)c4ccccc34)n2)cc1NC(C)=O [Compound 397, N-(5-((5-chloro-4-(1-methyl-1H-indol-3-yl)pyrimidin-2-yl)amino)-2-((2-(dimethylamino)ethyl)(ethyl)amino)phenyl)acetamide] is lower in IC50: over 1000 nM for the first, 180 nM for the second.

First: CCN(CCN(C)C)c1ccc(Nc2nc(-c3cn(C)c4ccccc34)c3cc[nH]c3n2)cc1NCCF [Compound 212e, N^1-(2-(dimethylamino)ethyl)-N^1-ethyl-N^2-(2-fluoroethyl)-N^4-(4-(1-methyl-1H-indol-3-yl)-7H-pyrrolo[2,3-d]pyrimidin-2-yl)benzene-1,2,4-triamine]
Second: CCN(CCN(C)C)c1ccc(Nc2nc(OC)c(OC)c(-c3cn(C)c4ccccc34)n2)cc1NC(C)=O [Compound 291c, N-(5-((4,5-dimethoxy-6-(1-methyl-1H-indol-3-yl)pyrimidin-2-yl)amino)-2-((2-(dimethylamino)ethyl) (ethyl)amino)phenyl) acetamide]
The IC50 of the first is 1.6-fold higher: 3360 nM for the first, 2050 nM for the second.

Going from CC(=O)Nc1cc(Nc2ncc(C(F)(F)F)c(-c3cn(C)c4ccccc34)n2)c(F)cc1N(C)CCN(C)C [Compound 313, N-(2-((2-(dimethylamino)ethyl)(methyl)amino)-4-fluoro-5-((4-(1-methyl-1H-indol-3-yl)-5-(trifluoromethyl)pyrimidin-2-yl)amino)phenyl)acetamide] to CC(=O)Nc1cc(Nc2ncc(C(F)(F)F)c(-c3cn(C)c4c(F)cccc34)n2)ccc1OCCN(C)C [Compound 352, N-(2-(2-(dimethylamino)ethoxy)-5-((4-(7-fluoro-1-methy-1H-indol-3-yl)-5-(trifluoromethyl)pyrimidin-2-yl)amino)phenyl)acetamide], the IC50 falls from 308 nM to 42.1 nM (7.3-fold). The second is the more potent here.

Compared with COc1nc(Nc2cc(F)c(N(C)CCN(C)C)c(NC(C)=O)c2)nc(-c2cn(C)c3ccccc23)c1OC [Compound 291b, N-(5-((4,5-dimethoxy-6-(1-methyl-1H-indol-3-yl)pyrimidin-2-yl)amino)-2-((2-(dimethylamino)ethyl)(methyl)amino)-3-fluorophenyl)acetamide], CCN(CCN(C)C)c1c(F)cc(Nc2nc3c(c(-c4cn(C)c5ccccc45)n2)COCC3)cc1NC(C)=O [Compound 257d, N-(2-((2-(dimethylamino)ethyl)(ethyl)amino)-3-fluoro-5-((4-(1-methyl-1H-indol-3-yl)-7,8-dihydro-5H-pyrano[4,3-d]pyrimidin-2-yl)amino)phenyl)acetamide] is higher in IC50: 1400 nM for the first, over 10000 nM for the second.

Compared with CC(=O)Nc1cc(Nc2ncc(Cl)c(-c3cn(C)c4c(C)cccc34)n2)ccc1N1CC[C@@H](N(C)C)C1 [Compound R-432, (R)—N-(5-((5-chloro-4-(1,7-dimethyl-1H-indol-3-yl)pyrimidin-2-yl)amino)-2-(3-(dimethylamino)pyrrolidin-1-yl)phenyl)acetamide], CC(=O)Nc1cc(Nc2ncc(Cl)c(-c3cn(C)c4ccccc34)n2)ccc1N(C)C(=O)CN(C)C [Compound 403, N-(2-acetamido-4-((5-chloro-4-(1-methyl-1H-indol-3-yl)pyrimidin-2-yl)amino)phenyl)-2-(dimethylamino)-N-methylacetamide] is 2.8-fold lower in IC50: 130 nM for the first, 46.5 nM for the second. The second is the more potent here.

First: CCN(CCN(C)C)c1ccc(Nc2ncc(C(F)(F)F)c(-c3c[nH]c4cc(F)ccc34)n2)cc1N [Compound 332, N^1-(2-(dimethylamino)ethyl)-N^1-ethyl-N^4-(4-(6-fluoro-1H-indol-3-yl)-5-(trifluoromethyl)pyrimidin-2-yl)benzene-1,2,4-triamine]
Second: CN(C)CCN(C)c1ccc(Nc2ncc(C(F)(F)F)c(-c3c[nH]c4ccccc34)n2)cc1N [Compound 297, N^4-(4-(1H-indol-3-yl)-5-(trifluoromethyl)pyrimidin-2-yl)-N^1-(2-(dimethylamino)ethyl)-N^1-methylbenzene-1,2,4-triamine]
The IC50 of the first is 3.4-fold higher: 127 nM for the first, 37.7 nM for the second. The second is the more potent here.

Going from CC(=O)Nc1cc(Nc2ncc(Cl)c(-c3cn(C)c4ccccc34)n2)ccc1NC(=O)CN(C)C [Compound 407, N-(2-acetamido-4-((5-chloro-4-(1-methyl-1H-indol-3-yl)pyrimidin-2-yl)amino)phenyl)-2-(dimethylamino)acetamide] to COc1cnc(Nc2ccc(N(CCN(C)C)C(C)=O)c(NC(C)=O)c2)nc1-c1c[nH]c2c(F)cccc12 [Compound 278, N-(2-acetamido-4-((4-(7-fluoro-1H-indol-3-yl)-5-methoxypyrimidin-2-yl)amino)phenyl)-N-(2-(dimethylamino)ethyl)acetamide], the IC50 falls from 44.4 nM to 17.1 nM (2.6-fold).

Cc1cccc2c(-c3nc(Nc4ccc(N(C)CCN(C)C)c(N)c4)ncc3C(F)(F)F)cn(C)c12 [Compound 369, N^4-(4-(1,7-dimethyl-1H-indol-3-yl)-5-(trifluoromethyl)pyrimidin-2-yl)-N^1-(2-(dimethylamino)ethyl)-N^1-methylbenzene-1,2,4-triamine] and CC(=O)Nc1cc(Nc2nc(-c3c[nH]c4ccccc34)c3cc[nH]c3n2)ccc1N(C)CCN(C)C [Compound 189, N-(5-((4-(1H-indol-3-yl)-7H-pyrrolo[2,3-d]pyrimidin-2-yl)amino)-2-((2-(dimethylamino)ethyl)(methyl)amino)phenyl)acetamide] are within 1.5-fold of each other in IC50: 27.6 nM for the first, 28.7 nM for the second.

Same assay, conditions: KM12-Luc, 72 h, read-out: NTRK IC50 in KM12-luc

CCN(CCN(C)C)c1ccc(Nc2nc(-c3cn(C)c4ccc(F)cc34)c3cc[nH]c3n2)cc1NC(C)=O [Compound 227c, N-(2-((2-(dimethylamino)ethyl)(ethyl)amino)-5-((4-(5-fluoro-1-methyl-1H-indol-3-yl)-7H-pyrrolo[2,3-d]pyrimidin-2-yl)amino)phenyl)acetamide] showed an IC50 of 436 nM.
